According to ChEMBL document CHEMBL3632610, “Expanding the structural diversity of Bcr-Abl inhibitors: Dibenzoylpiperazin incorporated with 1H-indazol-3-amine” (Eur J Med Chem, 2015):

Legend:
[1] = target: Bcr/Abl fusion protein (Homo sapiens, UniProt P00519, T315I); experiment: Inhibition of Bcr-Abl T315I mutant (unknown origin) by ADP-Glo assay; assay type: protein assay
[2] = system: K562; experiment: Cytotoxicity against human K562 cells expressing Bcr-Abl assessed as growth inhibition after 48 hrs by MTT assay; details: K562, 48 h
[3] = target: Bcr/Abl fusion protein (Homo sapiens, UniProt P00519); experiment: Inhibition of wild type Bcr-Abl (unknown origin) by ADP-Glo assay; assay type: protein assay

COc1cc(OC)cc(C(=O)N2CCN(C(=O)c3ccc(-c4cccc5[nH]nc(N)c45)cc3)CC2)c1
IC50 [1]: > 100 µM
IC50 [2]: 105 µM

Nc1n[nH]c2cccc(-c3ccc(C(=O)N4CCN(C(=O)c5ccc(Cl)cc5Cl)CC4)cc3)c12
IC50 [1]: 0.45 µM
IC50 [2]: 6.5 µM
IC50 [3]: 0.014 µM

Nc1n[nH]c2cccc(-c3ccc(C(=O)N4CCN(C(=O)c5cccc(F)c5)CC4)cc3)c12
IC50 [1]: 2.07 µM
IC50 [2]: 30.2 µM
IC50 [3]: 0.086 µM

COc1cccc(C(=O)N2CCN(C(=O)c3ccc(-c4cccc5[nH]nc(N)c45)cc3)CC2)c1
IC50 [1]: > 100 µM
IC50 [2]: 9.6 µM
IC50 [3]: 49.2 µM

Nc1n[nH]c2cccc(-c3ccc(C(=O)N4CCN(C(=O)c5ccccc5Cl)CC4)cc3)c12
IC50 [1]: 3.41 µM
IC50 [2]: 53.7 µM
IC50 [3]: 0.084 µM

Nc1n[nH]c2cccc(-c3ccc(C(=O)N4CCN(C(=O)c5ccccc5Br)CC4)cc3)c12
IC50 [1]: 0.74 µM
IC50 [2]: 47.3 µM
IC50 [3]: 0.18 µM

Nc1n[nH]c2cccc(-c3ccc(C(=O)N4CCN(C(=O)c5cccc(C(F)(F)F)c5)CC4)cc3)c12
IC50 [1]: 94.6 µM
IC50 [2]: 18.1 µM
IC50 [3]: 2.76 µM

Nc1n[nH]c2cccc(-c3ccc(C(=O)N4CCN(C(=O)c5ccc(F)c(F)c5)CC4)cc3)c12
IC50 [1]: 83.5 µM
IC50 [2]: 21.5 µM
IC50 [3]: > 100 µM

COc1ccc(C(=O)N2CCN(C(=O)c3ccc(-c4cccc5[nH]nc(N)c45)cc3)CC2)cc1
IC50 [1]: > 100 µM
IC50 [2]: 69.7 µM
IC50 [3]: > 100 µM

Cc1cccc(C(=O)N2CCN(C(=O)c3ccc(-c4cccc5[nH]nc(N)c45)cc3)CC2)c1
IC50 [1]: > 100 µM
IC50 [2]: 21.8 µM
IC50 [3]: 2.37 µM

Nc1n[nH]c2cccc(-c3ccc(C(=O)N4CCN(C(=O)c5ccc(Cl)cc5)CC4)cc3)c12
IC50 [1]: 65.6 µM
IC50 [2]: 10.5 µM
IC50 [3]: 1.89 µM

COc1ccccc1C(=O)N1CCN(C(=O)c2ccc(-c3cccc4[nH]nc(N)c34)cc2)CC1
IC50 [1]: > 100 µM
IC50 [2]: 32.1 µM
IC50 [3]: 22.8 µM

Cc1ccccc1C(=O)N1CCN(C(=O)c2ccc(-c3cccc4[nH]nc(N)c34)cc2)CC1
IC50 [1]: > 100 µM
IC50 [2]: 17.2 µM
IC50 [3]: 8.56 µM

Nc1n[nH]c2cccc(-c3ccc(C(=O)NCCNC(=O)c4ccc(F)c(F)c4)cc3)c12
IC50 [1]: 75.3 µM
IC50 [2]: 28.4 µM
IC50 [3]: 14.3 µM

Nc1n[nH]c2cccc(-c3ccc(C(=O)NCCNC(=O)c4ccccc4Br)cc3)c12
IC50 [1]: 1.04 µM
IC50 [2]: 13.1 µM
IC50 [3]: 0.031 µM

Cc1ccccc1C(=O)NCCNC(=O)c1ccc(-c2cccc3[nH]nc(N)c23)cc1
IC50 [1]: 28.8 µM
IC50 [2]: 8 µM
IC50 [3]: 0.018 µM

Nc1n[nH]c2cccc(-c3ccc(C(=O)NCCNC(=O)c4cccc(C(F)(F)F)c4)cc3)c12
IC50 [1]: 56.3 µM
IC50 [2]: 61.9 µM
IC50 [3]: 0.45 µM

Nc1n[nH]c2cccc(-c3ccc(C(=O)NCCNC(=O)c4cccc(F)c4)cc3)c12
IC50 [1]: > 100 µM
IC50 [2]: 26.9 µM

COc1ccccc1C(=O)NCCNC(=O)c1ccc(-c2cccc3[nH]nc(N)c23)cc1
IC50 [1]: > 100 µM
IC50 [2]: 13.9 µM
IC50 [3]: 0.25 µM

COc1ccc(C(=O)NCCNC(=O)c2ccc(-c3cccc4[nH]nc(N)c34)cc2)cc1
IC50 [1]: > 100 µM
IC50 [2]: 258 µM
IC50 [3]: > 100 µM

Cc1nc(Nc2ncc(C(=O)Nc3c(C)cccc3Cl)s2)cc(N2CCN(CCO)CC2)n1 [DASATINIB]
IC50 [2]: 0.45 µM
